According to patent US20240300932A1, “N-PHENYLIMINE DERIVATIVE AND PREPARATION METHOD AND USE THEREOF” (Guizhou University, priority 2023, published 2024):

Key:
Experiment in all cases: Post-emergence herbicidal activity test (stem and leaf spray, pot culture)
Assay type in all cases: in vivo
Details in all cases: 3 weeks after spraying
Trifoliumre pensL. = test system: Trifoliumre pensL.
Summary of the method: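 Pot-grown weeds in loam (pH 7), greenhouse at 20–30 °C, sprayed once post-emergence at the 2–3-leaf stage. Compound in acetone with Tween 80 plus methyl oleate oil (1.5 L/ha), applied at 10, 5 and 2.5 g/mu by spray tower. Effect scored 3 weeks after spraying, averaged over three repeats.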

Portulaca oleracea = test system: Portulaca oleracea
Summary of the method: (§1)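 Greenhouse pot-grown weeds (loam, pH 7) sprayed post-emergence at 2- to 3-leaf stage with acetone/Tween 80 formulation plus 1.5 liters/ha methyl oleate, at 10, 5 and 2.5 g/mu. Fresh-weight growth control rated 3 weeks later on 0–5 grade scale.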

Abutilon theophrasti = test system: Abutilon theophrasti
Summary of the method: as §1

Amaranthus retroflexus = test system: Amaranthus retroflexus
Summary of the method: as §1

Echinochloa crusgalli = test system: Echinochloa crusgalli
Summary of the method: as §1

Setaria viridis = test system: Setaria viridis
Summary of the method: as §1

SMILES: O=C1C2=C(CCCC2)C(=O)N1c1cc(OCc2nc(-c3ccccc3)no2)c(Cl)cc1F [Compound A25]
- Post-emergence herbicidal activity, Trifoliumre pensL. (grade) (Trifoliumre pensL.; dosage 2.5 g/mu): 4 (Grade 4: the growth control rate is greater than or equal to 60% and less than 85%)
- Post-emergence herbicidal activity, Trifoliumre pensL. (grade) (Trifoliumre pensL.; dosage 5 g/mu): 5 (Grade 5: the growth control rate is greater than or equal to 85%)
- Post-emergence herbicidal activity, Trifoliumre pensL. (grade) (Trifoliumre pensL.; dosage 10 g/mu): 5 (Grade 5: the growth control rate is greater than or equal to 85%)
- Post-emergence herbicidal activity, P. oleracea (grade) (Portulaca oleracea; dosage 2.5 g/mu): 4 (Grade 4: the growth control rate is greater than or equal to 60% and less than 85%)
- Post-emergence herbicidal activity, P. oleracea (grade) (Portulaca oleracea; dosage 5 g/mu): 5 (Grade 5: the growth control rate is greater than or equal to 85%)
- Post-emergence herbicidal activity, P. oleracea (grade) (Portulaca oleracea; dosage 10 g/mu): 5 (Grade 5: the growth control rate is greater than or equal to 85%)
- Post-emergence herbicidal activity, A. theophrasti (grade) (Abutilon theophrasti; dosage 2.5 g/mu): 5 (Grade 5: the growth control rate is greater than or equal to 85%)
- Post-emergence herbicidal activity, A. theophrasti (grade) (Abutilon theophrasti; dosage 5 g/mu): 5 (Grade 5: the growth control rate is greater than or equal to 85%)
- Post-emergence herbicidal activity, A. theophrasti (grade) (Abutilon theophrasti; dosage 10 g/mu): 5 (Grade 5: the growth control rate is greater than or equal to 85%)
- Post-emergence herbicidal activity, A. retroflexus (grade) (Amaranthus retroflexus; dosage 2.5 g/mu): 5 (Grade 5: the growth control rate is greater than or equal to 85%)
- Post-emergence herbicidal activity, A. retroflexus (grade) (Amaranthus retroflexus; dosage 5 g/mu): 5 (Grade 5: the growth control rate is greater than or equal to 85%)
- Post-emergence herbicidal activity, A. retroflexus (grade) (Amaranthus retroflexus; dosage 10 g/mu): 5 (Grade 5: the growth control rate is greater than or equal to 85%)
- Post-emergence herbicidal activity, E. crusgalli (grade) (Echinochloa crusgalli; dosage 2.5 g/mu): 1 (Grade 1: the growth control rate is greater than or equal to 5% and less than 20%)
- Post-emergence herbicidal activity, E. crusgalli (grade) (Echinochloa crusgalli; dosage 5 g/mu): 2 (Grade 2: the growth control rate is greater than or equal to 20% and less than 40%)
- Post-emergence herbicidal activity, E. crusgalli (grade) (Echinochloa crusgalli; dosage 10 g/mu): 3 (Grade 3: the growth control rate is greater than or equal to 40% and less than 60%)
- Post-emergence herbicidal activity, S. viridis (grade) (Setaria viridis; dosage 2.5 g/mu): 2 (Grade 2: the growth control rate is greater than or equal to 20% and less than 40%)
- Post-emergence herbicidal activity, S. viridis (grade) (Setaria viridis; dosage 5 g/mu): 3 (Grade 3: the growth control rate is greater than or equal to 40% and less than 60%)
- Post-emergence herbicidal activity, S. viridis (grade) (Setaria viridis; dosage 10 g/mu): 4 (Grade 4: the growth control rate is greater than or equal to 60% and less than 85%)

SMILES: CC(C)(C)c1ccc(-c2noc(COc3cc(N4C(=O)C5=C(CCCC5)C4=O)c(F)cc3Cl)n2)cc1 [Compound A26]
- Post-emergence herbicidal activity, Trifoliumre pensL. (grade) (Trifoliumre pensL.; dosage 2.5 g/mu): 4 (Grade 4: the growth control rate is greater than or equal to 60% and less than 85%)
- Post-emergence herbicidal activity, Trifoliumre pensL. (grade) (Trifoliumre pensL.; dosage 5 g/mu): 5 (Grade 5: the growth control rate is greater than or equal to 85%)
- Post-emergence herbicidal activity, Trifoliumre pensL. (grade) (Trifoliumre pensL.; dosage 10 g/mu): 5 (Grade 5: the growth control rate is greater than or equal to 85%)
- Post-emergence herbicidal activity, P. oleracea (grade) (Portulaca oleracea; dosage 2.5 g/mu): 4 (Grade 4: the growth control rate is greater than or equal to 60% and less than 85%)
- Post-emergence herbicidal activity, P. oleracea (grade) (Portulaca oleracea; dosage 5 g/mu): 5 (Grade 5: the growth control rate is greater than or equal to 85%)
- Post-emergence herbicidal activity, P. oleracea (grade) (Portulaca oleracea; dosage 10 g/mu): 5 (Grade 5: the growth control rate is greater than or equal to 85%)
- Post-emergence herbicidal activity, A. theophrasti (grade) (Abutilon theophrasti; dosage 2.5 g/mu): 5 (Grade 5: the growth control rate is greater than or equal to 85%)
- Post-emergence herbicidal activity, A. theophrasti (grade) (Abutilon theophrasti; dosage 5 g/mu): 5 (Grade 5: the growth control rate is greater than or equal to 85%)
- Post-emergence herbicidal activity, A. theophrasti (grade) (Abutilon theophrasti; dosage 10 g/mu): 5 (Grade 5: the growth control rate is greater than or equal to 85%)
- Post-emergence herbicidal activity, A. retroflexus (grade) (Amaranthus retroflexus; dosage 2.5 g/mu): 5 (Grade 5: the growth control rate is greater than or equal to 85%)
- Post-emergence herbicidal activity, A. retroflexus (grade) (Amaranthus retroflexus; dosage 5 g/mu): 5 (Grade 5: the growth control rate is greater than or equal to 85%)
- Post-emergence herbicidal activity, A. retroflexus (grade) (Amaranthus retroflexus; dosage 10 g/mu): 5 (Grade 5: the growth control rate is greater than or equal to 85%)
- Post-emergence herbicidal activity, E. crusgalli (grade) (Echinochloa crusgalli; dosage 2.5 g/mu): 1 (Grade 1: the growth control rate is greater than or equal to 5% and less than 20%)
- Post-emergence herbicidal activity, E. crusgalli (grade) (Echinochloa crusgalli; dosage 5 g/mu): 2 (Grade 2: the growth control rate is greater than or equal to 20% and less than 40%)
- Post-emergence herbicidal activity, E. crusgalli (grade) (Echinochloa crusgalli; dosage 10 g/mu): 3 (Grade 3: the growth control rate is greater than or equal to 40% and less than 60%)
- Post-emergence herbicidal activity, S. viridis (grade) (Setaria viridis; dosage 2.5 g/mu): 2 (Grade 2: the growth control rate is greater than or equal to 20% and less than 40%)
- Post-emergence herbicidal activity, S. viridis (grade) (Setaria viridis; dosage 5 g/mu): 3 (Grade 3: the growth control rate is greater than or equal to 40% and less than 60%)
- Post-emergence herbicidal activity, S. viridis (grade) (Setaria viridis; dosage 10 g/mu): 4 (Grade 4: the growth control rate is greater than or equal to 60% and less than 85%)

SMILES: O=C1C2=C(CCCC2)C(=O)N1c1cc(OCc2nc(-c3ccc(I)cc3)no2)c(Cl)cc1F [Compound A27]
- Post-emergence herbicidal activity, Trifoliumre pensL. (grade) (Trifoliumre pensL.; dosage 2.5 g/mu): 5 (Grade 5: the growth control rate is greater than or equal to 85%)
- Post-emergence herbicidal activity, Trifoliumre pensL. (grade) (Trifoliumre pensL.; dosage 5 g/mu): 5 (Grade 5: the growth control rate is greater than or equal to 85%)
- Post-emergence herbicidal activity, Trifoliumre pensL. (grade) (Trifoliumre pensL.; dosage 10 g/mu): 5 (Grade 5: the growth control rate is greater than or equal to 85%)
- Post-emergence herbicidal activity, P. oleracea (grade) (Portulaca oleracea; dosage 2.5 g/mu): 5 (Grade 5: the growth control rate is greater than or equal to 85%)
- Post-emergence herbicidal activity, P. oleracea (grade) (Portulaca oleracea; dosage 5 g/mu): 5 (Grade 5: the growth control rate is greater than or equal to 85%)
- Post-emergence herbicidal activity, P. oleracea (grade) (Portulaca oleracea; dosage 10 g/mu): 5 (Grade 5: the growth control rate is greater than or equal to 85%)
- Post-emergence herbicidal activity, A. theophrasti (grade) (Abutilon theophrasti; dosage 2.5 g/mu): 5 (Grade 5: the growth control rate is greater than or equal to 85%)
- Post-emergence herbicidal activity, A. theophrasti (grade) (Abutilon theophrasti; dosage 5 g/mu): 5 (Grade 5: the growth control rate is greater than or equal to 85%)
- Post-emergence herbicidal activity, A. theophrasti (grade) (Abutilon theophrasti; dosage 10 g/mu): 5 (Grade 5: the growth control rate is greater than or equal to 85%)
- Post-emergence herbicidal activity, A. retroflexus (grade) (Amaranthus retroflexus; dosage 2.5 g/mu): 5 (Grade 5: the growth control rate is greater than or equal to 85%)
- Post-emergence herbicidal activity, A. retroflexus (grade) (Amaranthus retroflexus; dosage 5 g/mu): 5 (Grade 5: the growth control rate is greater than or equal to 85%)
- Post-emergence herbicidal activity, A. retroflexus (grade) (Amaranthus retroflexus; dosage 10 g/mu): 5 (Grade 5: the growth control rate is greater than or equal to 85%)
- Post-emergence herbicidal activity, E. crusgalli (grade) (Echinochloa crusgalli; dosage 2.5 g/mu): 1 (Grade 1: the growth control rate is greater than or equal to 5% and less than 20%)
- Post-emergence herbicidal activity, E. crusgalli (grade) (Echinochloa crusgalli; dosage 5 g/mu): 2 (Grade 2: the growth control rate is greater than or equal to 20% and less than 40%)
- Post-emergence herbicidal activity, E. crusgalli (grade) (Echinochloa crusgalli; dosage 10 g/mu): 3 (Grade 3: the growth control rate is greater than or equal to 40% and less than 60%)
- Post-emergence herbicidal activity, S. viridis (grade) (Setaria viridis; dosage 2.5 g/mu): 2 (Grade 2: the growth control rate is greater than or equal to 20% and less than 40%)
- Post-emergence herbicidal activity, S. viridis (grade) (Setaria viridis; dosage 5 g/mu): 3 (Grade 3: the growth control rate is greater than or equal to 40% and less than 60%)
- Post-emergence herbicidal activity, S. viridis (grade) (Setaria viridis; dosage 10 g/mu): 4 (Grade 4: the growth control rate is greater than or equal to 60% and less than 85%)

SMILES: O=C1C2=C(CCCC2)C(=O)N1c1cc(OCc2nnc(-c3ccccc3F)o2)c(Cl)cc1F [Compound B1]
- Post-emergence herbicidal activity, Trifoliumre pensL. (grade) (Trifoliumre pensL.; dosage 2.5 g/mu): 5 (Grade 5: the growth control rate is greater than or equal to 85%)
- Post-emergence herbicidal activity, Trifoliumre pensL. (grade) (Trifoliumre pensL.; dosage 5 g/mu): 5 (Grade 5: the growth control rate is greater than or equal to 85%)
- Post-emergence herbicidal activity, Trifoliumre pensL. (grade) (Trifoliumre pensL.; dosage 10 g/mu): 5 (Grade 5: the growth control rate is greater than or equal to 85%)
- Post-emergence herbicidal activity, P. oleracea (grade) (Portulaca oleracea; dosage 2.5 g/mu): 5 (Grade 5: the growth control rate is greater than or equal to 85%)
- Post-emergence herbicidal activity, P. oleracea (grade) (Portulaca oleracea; dosage 5 g/mu): 5 (Grade 5: the growth control rate is greater than or equal to 85%)
- Post-emergence herbicidal activity, P. oleracea (grade) (Portulaca oleracea; dosage 10 g/mu): 5 (Grade 5: the growth control rate is greater than or equal to 85%)
- Post-emergence herbicidal activity, A. theophrasti (grade) (Abutilon theophrasti; dosage 2.5 g/mu): 5 (Grade 5: the growth control rate is greater than or equal to 85%)
- Post-emergence herbicidal activity, A. theophrasti (grade) (Abutilon theophrasti; dosage 5 g/mu): 5 (Grade 5: the growth control rate is greater than or equal to 85%)
- Post-emergence herbicidal activity, A. theophrasti (grade) (Abutilon theophrasti; dosage 10 g/mu): 5 (Grade 5: the growth control rate is greater than or equal to 85%)
- Post-emergence herbicidal activity, A. retroflexus (grade) (Amaranthus retroflexus; dosage 2.5 g/mu): 5 (Grade 5: the growth control rate is greater than or equal to 85%)
- Post-emergence herbicidal activity, A. retroflexus (grade) (Amaranthus retroflexus; dosage 5 g/mu): 5 (Grade 5: the growth control rate is greater than or equal to 85%)
- Post-emergence herbicidal activity, A. retroflexus (grade) (Amaranthus retroflexus; dosage 10 g/mu): 5 (Grade 5: the growth control rate is greater than or equal to 85%)
- Post-emergence herbicidal activity, E. crusgalli (grade) (Echinochloa crusgalli; dosage 2.5 g/mu): 1 (Grade 1: the growth control rate is greater than or equal to 5% and less than 20%)
- Post-emergence herbicidal activity, E. crusgalli (grade) (Echinochloa crusgalli; dosage 5 g/mu): 2 (Grade 2: the growth control rate is greater than or equal to 20% and less than 40%)
- Post-emergence herbicidal activity, E. crusgalli (grade) (Echinochloa crusgalli; dosage 10 g/mu): 3 (Grade 3: the growth control rate is greater than or equal to 40% and less than 60%)
- Post-emergence herbicidal activity, S. viridis (grade) (Setaria viridis; dosage 2.5 g/mu): 2 (Grade 2: the growth control rate is greater than or equal to 20% and less than 40%)
- Post-emergence herbicidal activity, S. viridis (grade) (Setaria viridis; dosage 5 g/mu): 3 (Grade 3: the growth control rate is greater than or equal to 40% and less than 60%)
- Post-emergence herbicidal activity, S. viridis (grade) (Setaria viridis; dosage 10 g/mu): 4 (Grade 4: the growth control rate is greater than or equal to 60% and less than 85%)
